Measured values as given in patent publication US20110294794A1, “TREATMENT OF PROTEINOPATHIES USING A FARNESYL TRANSFERASE INHIBITOR” (Link Medicine Corporation, priority 2008, published 2011).
Entries after “also recorded” stand apart in the source; their conditions may differ.

Columns and labels:
[1] = system: Aβ; assay: Aβ pathology in APP/PS1 transgenic mice (6E10, Thioflavin-S, ELISA); format: in vivo, mouse; conditions: 0.9 mg/kg once every 24 hr, two months
Description: Immunohistochemistry and quantification of stained cells: For evaluation of α-synuclein immunoreactivity (IR), 5 sagittal cryo-cut sections (10 μm slice thickness) from five different layers were used for counting of IR cells in the cortex and hippocampus. Brain sections were stained with a monoclonal human α-synuclein specific antibody (Alexis®; Cat# 804-258-L001; dilution 1:5), followed by a secondary Ab Cy 2-Goat Anti-Rat (Jackson ImmunoResearch®; dilution 1:200). IR positive cells were quantified using specialized image analysis software (Image Pro Plus, version 4.5.1.29). […] Images were evaluated with ImageProPlus (version 6.2) image analysis software. For APP/PS1 transgenic animals sagittal hemisections (40 μm) were collected and processed for Aβ immunohistochemistry using an 6E10 antibody, Thioflavin-S staining Primary antibodies were detected by the ABC method.
ELISA quantification of α-Synuclein in the α-Synuclein transgenic animals: Brain homogenate was centrifuged and the supernatant saved as fraction F1. […] Raw absorbance (405 nm) was then normalized to the total protein concentration of each sample. […] To quantify the amount of human Aβ-40 and Aβ-42, ELISA kits were used (The Genetics Company, Zurich, Switzerland). […]

[2] = Pharmacokinetics of LNK-754-TS in mice, oral administration; format: in vivo, mouse; conditions: 9 mg/kg, 20% beta-cyclodextrin
Description: In the experimental data represented in Table 2A, a different method of drug delivery is used (oral) than in the experiment represented in FIG. 3. The best way to compare the relative coverage of the two delivery methods (oral and continuous infusion) is by comparing area-under-the-curve (AUC) values. We can compare the calculated AUC values for the continuous infusion oncology study presented in FIG. 3 and the AUC values associated with the synuclein model doses in the table. […] The AUCs of orally dosed LNK-754-TS at 0.9 mg/kg and at 0.09 mg/kg QD are 34.6 and […], respectively.
The pharmacokinetic profiles of LNK-754-TS and Zarnestra® were analyzed using methods known in the art. The results are shown in FIGS. 13-14 and the tables below.

[3] = system: LC3 mRNA; assay: LC3 mRNA (qPCR) in differentiated SH-SY5Y cells; format: cell-based, human
Experimental: (§1) Cell culture and immunocytochemistry: SH-SY5Y cells were grown in DMEM medium supplemented with 10% FBS and 1% pen/strep at 37° C. and 5% CO2. Cells were differentiated with 10 μM retinoic acid for 48 hr, then treated with the either rapamycin (100 nM or 1 μM) or with 100 nM of either LNK-754-TS or Tipifarnib for 48-72 hr. Cells were then fixed with 4% paraformaldehyde and stained for LC3 (Novus biological, NB100-2331, dilution 1:800) followed by secondary Alexa-564 anti-Rabbit (A-11011).
(§2) Quantitative real-time PCR: Gene expression profiles were done by qPCR on series of known autophagy genes. RNA was extracted with Tri-reagent (Sigma), and cDNAs generated using iScript (Biorad). qPCR analysis was carried out in a 96 well plate using an iCycler (BioRad, Hercules, Calif.), and iQ SYBR Green Supermix (Biorad) according to the manufacturer's specifications.
Such increases in LC3 mRNA levels are associated in the literature with stimulation of macroautophagy. This supports the hypothesis that at doses as low as 1 nM in this in vitro system there is stimulation of autophagy in these cells.
(§3) Autophagy was measured in a neuroblastoma cell culture system by three distinct approaches: quantitation of autophagy-related mRNA's, immunofluorescence microscopy of autophagosomes, and biochemical detection of the microtubule-associated protein 1 light chain 3 (LC3) a key protein that is required for autophagosome formation. Differentiated human neuroblastoma cells (SH-SY5Y) were treated for 72 hr with LNK-754-TS (0.01-100 nM), Zarnestra® (also referred to herein as tipifarnib) (100 nM) or rapamycin (1 μM).

[4] = system: LC3; assay: Punctate LC3 immunostaining in SH-SY5Y cells; format: cell-based, human; conditions: 100 nM (FIG. 8b)
Experimental: as §1, §3

[5] = system: 3T3 H-ras (61L) xenograft tumor; conditions: continuous infusion, cited from earlier work
[6] = system: p62 mRNA; assay: p62 mRNA in SH-SY5Y cells; format: cell-based, human; conditions: 100 nM (FIG. 8e)
Experimental: as §2

[7] = system: aged non-transgenic rats; assay: Morris water maze in aged non-transgenic rats; format: in vivo, rat; conditions: aged rats (22 months old), 0.3 mg/kg and 0.9 mg/kg once every 24 hours
Description: Morris water maze (MWM) analysis of cognitive performance: In APP/PS1 transgenic animals, swimming behavior in a Morris Water Maze was videotaped and analyzed (Ethovision, Noldus, Wageningen, Netherlands). For mice, a place navigation test was used to locate the hidden platform in five blocks of three trials over three consecutive days. Each trial consists of a forced swim test of maximum 120 seconds, followed by 60 seconds of rest. The time each mouse needed for location of the platform was measured. For rats, a cued learning phase was first conducted, consisting of 3 trials per day for 5 days, using a visible platform of varying location. Each trial consisted of a forced swim test of maximum 60 seconds, followed by 10 minutes of rest. The time and path length each rat needed to locate the platform was measured.
In order to rule out the possibility that the rapid observed improvement in cognition described above arose from an alternative, transgene-independent mechanism, aged non-transgenic rats (22 months old) were treated with LNK-754-TS (0.3 mg/kg and 0.9 mg/kg, once every 24 hours) and their cognitive performance was measured by MWM and compared to that of younger rats (3 months old) of the same strain.

Structure (SMILES): C#Cc1cccc(-c2cc(=O)n(C)c3ccc([C@](O)(c4ccc(Cl)cc4)c4cncn4C)cc23)c1 [LNK-754-TS, (R)-6-[(4-chlorophenyl)-hydroxyl-(1-methyl-1-H-imidazol-5-yl)-methyl]-4-(3-ethynylphenyl)-1-methyl-2-(1H)-quinonlinone (2S,3S)-dihydroxybutanedioate]
- levels of Aβ40/Aβ42 extracted from whole brain fractions (Elisa) [1]: no statistically significant changes
- number of Aβ (6E10) immunoreactive plaques in the subiculum vs. vehicle [1]: lesser, but still significant, effect; also recorded: significant decrease
- Cmax ([2]; BID day 1): 1385 ng/mL
- Cmax ([2]; BID day 5): 1485 ng/mL
- LC3 mRNA level ([3]; 0.01-100 nM, 72 hr (FIG. 8a)): upregulated; also recorded: increased
- potency of LC3 transcript upregulation relative to the other two compounds ([3]; 72 hr, vs. Zarnestra and rapamycin): most potently
- levels of mRNA of LC3 ([3]; doses between 1 and 100 nM, 72 hours (FIG. 4)): significant increases
- punctate LC3 immunostaining (number of LC3-positive puncta) [4]: distinct increase; also recorded: increased
- continuous serum level at which significant inhibition of tumor growth was seen ([5]; 7 day treatment): above 100 ng/mL
- inhibition of Ras farnesylation at which significant inhibition of tumor growth was seen ([5]; tumor tissue): ≥ 50%
- p62 mRNA [6]: upregulation; also recorded: increased
- cognitive performance (place learning curves, probe tests) [7]: no significant cognitive improvement
